Experimental findings from patent US20080161306A1, “Pyrrole Derivatives as Dna Gyrase and Topoisomerase Inhibitors” (priority 2005, published 2008) are described below.

As usually defined, the MIC is the least concentration at which growth counts as inhibited.

Holding throughout (assay type): cell-based
The subject of experiment [1] is SAU516. Put plainly: Bacterial susceptibility testing in liquid media (MIC), SAU516. The following applies: strain SAU516; lowest concentration reducing growth by 80% or more; 37 degrees C., 24 hrs. As to the method: (§1) Compounds were tested for antimicrobial activity by susceptibility testing in liquid media. Compounds were dissolved in dimethylsulfoxide and tested in 10 doubling dilutions in the susceptibility assays. The organisms used in the assay were grown overnight on suitable agar media and then suspended in a liquid medium appropriate for the growth of the organism. The suspension was a 0.5 McFarland and a further 1 in 10 dilution was made into the same liquid medium to prepare the final organism suspension in 100 μL. Plates were incubated under appropriate conditions at 37 degrees C. for 24 hrs prior to reading. The Minimum Inhibitory Concentration was determined as the lowest drug concentration able to reduce growth by 80% or more.

Experiment [2] has as its system Streptococcus pneumoniae. Put plainly: Bacterial susceptibility testing in liquid media (MIC), Streptococcus pneumoniae. The following applies: lowest concentration reducing growth by 80% or more, 37 degrees C., 24 hrs; for MIC: Streptococcus pneumoniae. Here is the method: as §1
Experiment [3] relates to HIN446. As to the kind of experiment: Bacterial susceptibility testing in liquid media (MIC), HIN446. The following applies: strain HIN446; lowest concentration reducing growth by 80% or more; 37 degrees C., 24 hrs. As to the method: as §1
Where [4] appears, read: strain SPN548, read-out: MIC SPN548.

In brackets after ≈: the same amount, converted by molar mass. Where two headings read alike, the source gives them in different places.

`Cc1[nH]c(C(=O)NC2CC=C(c3cccc(C(=O)O)c3)CC2)c(Cl)c1Cl` (stereo not shown) [Example 16, 5-(4-{[(3,4-Dichloro-5-methyl-1H-pyrrol-2-yl)carbonyl]amino}cyclohex-1-en-1-yl)benzoic acid]: the MIC was 2 µg/mL (≈ 5.09 µM) in experiment [1], 1 µg/mL (≈ 2.54 µM) in experiment [2] (read-out: MIC against Streptococcus pneumoniae), 1 µg/mL (≈ 2.54 µM) in experiment [2] (setting [4]) and 4 µg/mL (≈ 10.2 µM) in experiment [3].
As for `CO[C@@H]1C=C(c2cccc(C(=O)O)c2)CC[C@@H]1NC(=O)c1[nH]c(C)c(Cl)c1Cl` (relative stereo) [Example 11, 3-((3,4-Cis)-4-{[(3,4-Dichloro-5-methyl-1H-pyrrol-2-yl)carbonyl]amino}-3-methoxycyclohex-1-en-1-yl)benzoic acid], in experiment [1], the “MIC SAU516” value was 0.5 µg/mL (≈ 1.18 µM). The “MIC SPN548” value in experiment [2] (strain SPN548) was 0.13 µg/mL (≈ 0.307 µM). Besides, the “MIC HIN446” value in experiment [3] is 2 µg/mL (≈ 4.72 µM).
Take `Cc1[nH]c(C(=O)N[C@H]2CC[C@H](c3cccc(C(=O)O)c3)CC2)c(Cl)c1Cl` [Example 5, trans-3-(4-{[(3,4-Dichloro-5-methyl-1H-pyrrol-2-yl)carbonyl]amino}cyclohexyl)benzoic acid]: the MIC in experiment [1] turned out to be 4 µg/mL (≈ 10.1 µM); in experiment [2] (setting [4]) it was 4 µg/mL (≈ 10.1 µM); in experiment [3], 16 µg/mL (≈ 40.5 µM).
